What was measured:
Stromelysin = Stromelysin (Homo sapiens, UniProt P08254); assay: in vitro particle concentration fluorescence assay, inhibition of stromelysin; assay type: biochemical; conditions: pH 7.5, room temperature, read-out: Stromelysin Ki (MMP Inhibition Constants)
Method: (§1) Inhibitory activity is evaluated in one or more of the MMP enzymes (stromelysin, gelatinase, and collagenase) in vitro using particle concentration fluorescence assay. An inhibitor binds to MMP enzymes which prevents the degradation of a substrate by stromelysin, gelatinase, or collagenase. The substrate has attached to it a fluorescein and a biotin moiety. The intact substrate then binds to an avidin-coated particle via the biotin moiety. Once the particle is washed and dried, a fluorescent signal is generated since the fluorescent group is attached to the particle. Without an inhibitor present, the substrate is degraded by MMP enzymes and the fluorescein group is removed, therefore, no fluorescent signal can be detected. Testing compounds are dissolved in DMSO to the desired concentration, then the solutions are diluted to 1:5 with MMP buffer (50 mM Tris-HCl, pH 7.5; 150 mM NaCl; 0.02% NaN3). Serial two-fold dilutions of each compound are prepared. A concentrated, activated enzyme solution is transferred into each plate of the testing compounds, and the mixture is incubated at room temperature for 15 minutes. Thawed MMP substrate is then added into all plates, and the plates are incubated in the dark for 1-3 hours at room temperature. At this point, the substrate mixture is mixed with 0.1% avidin-coated polystyrene particles. After 15 minutes, the fluorescence values are measured following filtration and washing of the beads. Ki values are then calculated.

Gelatinase = assay: in vitro particle concentration fluorescence assay, inhibition of gelatinase; assay type: biochemical; conditions: pH 7.5, room temperature, read-out: Gelatinase Ki (MMP Inhibition Constants)
Method: as §1

Chain of Stromelysin (P08254 100-477): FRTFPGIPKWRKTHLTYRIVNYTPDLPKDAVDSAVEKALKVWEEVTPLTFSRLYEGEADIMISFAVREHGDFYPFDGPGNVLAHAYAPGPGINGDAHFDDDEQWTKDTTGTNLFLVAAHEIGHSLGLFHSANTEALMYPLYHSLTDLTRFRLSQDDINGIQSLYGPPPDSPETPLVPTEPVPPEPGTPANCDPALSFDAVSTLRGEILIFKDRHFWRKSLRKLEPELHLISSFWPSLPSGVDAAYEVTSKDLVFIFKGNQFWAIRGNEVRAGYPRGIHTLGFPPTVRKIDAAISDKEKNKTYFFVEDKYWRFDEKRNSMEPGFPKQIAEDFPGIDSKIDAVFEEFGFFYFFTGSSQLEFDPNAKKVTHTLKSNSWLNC

SMILES | Ki (Stromelysin) [nM] | Ki (Gelatinase) [nM]
CCCCOc1ccc(S(=O)(=O)CC(CN2C(=O)CN(CCCC)C2=O)C(=O)NO)cc1 (stereo not drawn) [Example 14, N-hydroxy-2-[methyl-3-(1-butylhydantoin)]-3-(4-butoxybenzenesulfonyl)-propionamide] | 1.8 | 0.092
O=C(NO)C(CS(=O)(=O)c1ccccc1)CS(=O)(=O)c1ccccc1 [Example 10, N-hydroxy-2-[(benzenesulfonyl)methyl]-3-(benzenesulfonyl)-propionamide] | 160 | 8
O=C(NO)C(CS(=O)(=O)c1ccc(Cl)cc1)CS(=O)(=O)c1ccc(Cl)cc1 [Example 5, N-hydroxy-2-[(4-chlorobenzenesulfonyl)methyl]-3-(4-chlorobenzenesulfonyl)-propionamide] | 72 | 1.9
O=C(NO)C(CS(=O)(=O)c1ccc(Br)cc1)CS(=O)(=O)c1ccc(Br)cc1 [Example 6, N-hydroxy-2-[(4-bromobenzenesulfonyl)methyl]-3-(4-bromobenzenesulfonyl)-propionamide] | 92 | 2.5
CC(CS(=O)(=O)c1ccccc1)C(=O)NO (stereo not drawn) [Example 3, N-hydroxy 2-[(benzenesulfonyl)methyl]-propionamide] | 3600 | 81
O=C(NO)C(Cc1ccccc1)CS(=O)(=O)c1ccccc1 (stereo not drawn) [Example 2, N-hydroxy 2-[(benzenesulfonyl)methyl]-3-phenyl-propionamide] | 1100 | 87
Cc1ccc(S(=O)(=O)CC(CS(=O)(=O)c2ccc(C)cc2)C(=O)NO)cc1 [Example 9, N-hydroxy-2-[(4-methylbenzenesulfonyl)methyl]-3-(4-methylbenzenesulfonyl)-propionamide] | 130 | 3.8

Continued, values first:

Ki (Stromelysin) [nM] | Ki (Gelatinase) [nM] | SMILES
9 | 0.34 | CCCCN1CC(=O)N(CC(CS(=O)(=O)c2ccc(OC)cc2)C(=O)NO)C1=O (stereo not drawn) [Example 15, N-hydroxy-2-[methyl-3-(1-butylhydantoin)]-3-(4-methoxybenzenesulfonyl)-propionamide]
49 | 9.2 | COc1ccc(S(=O)(=O)CC(Cc2ccccc2)C(=O)NO)cc1 (stereo not drawn) [Example 1, N-hydroxy 2-[(4-methoxybenzenesulfonyl)methyl]-3-phenyl-propionamide]
17 | 1.3 | COc1ccc(S(=O)(=O)CC(CN2C(=O)CN(C)C2=O)C(=O)NO)cc1 (stereo not drawn) [Example 13, N-hydroxy-2-[methyl-3-(1-methylhydantoin)]-3-(4-methoxybenzenesulfonyl)-propionamide]
1 | 1 | COc1ccc(S(=O)(=O)CCCC(CS(=O)(=O)c2ccc(OC)cc2)C(=O)NO)cc1 (stereo not drawn) [Example 11, N-hydroxy-2-[(4-methoxybenzenesulfonyl)-methyl]-5-(4-methoxybenzenesulfonyl)-pentanamide]
440 | 190 | CCCCCCCCS(=O)(=O)CC(CS(=O)(=O)CCCCCCCC)C(=O)NO [Example 8, N-hydroxy-2-[(n-octylsulfonyl)methyl]-3-(n-octylsulfonyl)-propionamide]
1000 | 350 | CCCCS(=O)(=O)CC(CS(=O)(=O)CCCC)C(=O)NO [Example 7, N-hydroxy-2-[(n-butylsulfonyl)methyl]-3-(n-butylsulfonyl)-propionamide]
3.9 | 0.19 | COc1ccc(S(=O)(=O)CC(CS(=O)(=O)c2ccc(OC)cc2)C(=O)NO)cc1 [Example 4, N-hydroxy-2-[(4-methoxybenzene-sulfonyl)methyl]-3-(4-methoxybenzenesulfonyl)-propionamide]
5.4 | 0.82 | CCCCCCCCS(=O)(=O)CC(CS(=O)(=O)c1ccc(OC)cc1)C(=O)NO (racemic) [Example 12, N-hydroxy-2-(n-octylsulfonylmethyl)-3-(4-methoxybenzenesulfonyl)-propionamide]

— US5847153A, “β-sulfonyl hydroxamic acids” (Pharmacia & Upjohn Company, priority 1997, dated 1998)
